These results are taken from ChEMBL document CHEMBL4765228, “Indole-like Trk receptor antagonists” (Eur J Med Chem, 2016).

Data set [1] deals with High affinity nerve growth factor receptor (Rattus norvegicus) (UniProt P35739). As to the kind of experiment: Inhibition of TrkA in rat PC12 cells assessed as reduction in ERK1/ERK2 phosphorylation at 0.01 to 1 uM after 5 mins in presence of NGF by Western blot analysis. It is filed as cell-based. The note with it: PC-12, dose 0.01-1 µM.
The next data set concerns MG87. Kind of data set: Cytotoxicity against mouse MG87 cells transfected with pFA2-Elk plasmid and pFR-luciferase plasmid assessed as cellular ATP content at 0.01 to 1 uM after 24 hrs by CellTiter-Glo luminescent analysis. The note with it: dose 0.01-1 µM. It is filed as functional, cell-based. In general terms: Cellular ATP, detected with luciferase, serves as a proxy for viable cell number.

Data set [2] has as its target BDNF/NT-3 growth factors receptor (Mus musculus) (UniProt P15209). Kind of data set: Inhibition of TrkB phosphorylation in mouse MG87 cells transfected with pFA2-Elk plasmid and pFR-luciferase plasmid at 1 uM after 5 mins in presence of BDNF by Western blot analysis. In kind it is cell-based.
For data set [3], the target named is NT-3 growth factor receptor (Homo sapiens, UniProt Q16288). Kind of data set: Inhibition of TrkC (unknown origin).
The target of data set [4] is T1, High affinity nerve growth factor receptor (Homo sapiens, UniProt P04629). As to the kind of experiment: Inhibition of GAL4 fused TrkA (unknown origin) expressed in PC12 cells transfected with pFA2-Elk plasmid and pFR-luciferase plasmid measured for 18 hrs by luciferase reporter gene assay. It is filed as cell-based, Rattus norvegicus, PC-12. On the technique in general: Reporter assays use an easily measured gene product as a stand-in for the process of interest.

In data set [5] the target is T2, BDNF/NT-3 growth factors receptor (Homo sapiens, UniProt Q16620). As to the kind of experiment: Inhibition of TrkB (unknown origin).
Data set [6] deals with T1, High affinity nerve growth factor receptor. Kind of data set: Inhibition of TrkA (unknown origin).
The test system of a further data set is Cortical neurone. Kind of data set: Cytotoxicity against Wistar rat cortical neuron assessed as neuron survival at 0.01 to 1 uM incubated for 24 hrs. The note with it: dose 0.01-1 µM. In kind it is cell-based.
Data set [7] addresses T2, BDNF/NT-3 growth factors receptor. Kind of data set: Inhibition of GAL4 fused TrkB (unknown origin) expressed in MG87 cells transfected with pFA2-Elk plasmid and pFR-luciferase plasmid measured for 18 hrs by luciferase reporter gene assay. In kind it is cell-based.
Data set [8] can be described thus: Aqueous solubility of the compound […] incubated for 60 min by RP-HPLC-DAD analysis. It is filed as physicochemical.

Structures are written as SMILES. Converted amounts (≈) assume the structure as drawn. The source made the active and inactive calls. The rule behind the calls is not given here.

As usually defined, the IC50 is the midpoint of a concentration-inhibition curve. Lower therefore signals greater potency. A word on the solubility: it is how much of the substance goes into solution per volume. Lower therefore signals little dissolved substance.

Sequence of BDNF/NT-3 growth factors receptor (Mus musculus) (P15209 whole entry): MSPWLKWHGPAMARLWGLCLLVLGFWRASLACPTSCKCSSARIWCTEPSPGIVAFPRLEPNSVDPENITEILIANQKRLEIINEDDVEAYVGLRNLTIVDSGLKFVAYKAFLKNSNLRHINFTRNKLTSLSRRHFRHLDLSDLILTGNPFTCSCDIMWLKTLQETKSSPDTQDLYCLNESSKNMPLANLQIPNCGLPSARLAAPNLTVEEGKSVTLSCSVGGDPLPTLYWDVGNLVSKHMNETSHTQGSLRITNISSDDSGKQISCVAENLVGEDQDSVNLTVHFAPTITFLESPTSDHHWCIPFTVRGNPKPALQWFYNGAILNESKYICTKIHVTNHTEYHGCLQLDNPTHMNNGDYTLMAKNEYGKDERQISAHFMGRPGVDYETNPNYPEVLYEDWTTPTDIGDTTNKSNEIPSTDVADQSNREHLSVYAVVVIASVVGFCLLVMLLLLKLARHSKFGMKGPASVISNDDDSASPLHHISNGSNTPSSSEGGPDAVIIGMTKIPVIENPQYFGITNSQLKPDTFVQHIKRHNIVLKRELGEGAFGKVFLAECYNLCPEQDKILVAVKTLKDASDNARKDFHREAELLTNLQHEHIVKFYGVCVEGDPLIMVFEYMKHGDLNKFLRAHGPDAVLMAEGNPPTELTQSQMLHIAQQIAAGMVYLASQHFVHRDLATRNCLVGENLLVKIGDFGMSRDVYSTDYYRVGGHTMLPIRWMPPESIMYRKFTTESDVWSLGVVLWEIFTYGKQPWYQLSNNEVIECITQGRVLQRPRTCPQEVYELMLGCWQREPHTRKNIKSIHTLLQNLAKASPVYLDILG
T1 sequence (P04629 whole entry, the tested form may be a part): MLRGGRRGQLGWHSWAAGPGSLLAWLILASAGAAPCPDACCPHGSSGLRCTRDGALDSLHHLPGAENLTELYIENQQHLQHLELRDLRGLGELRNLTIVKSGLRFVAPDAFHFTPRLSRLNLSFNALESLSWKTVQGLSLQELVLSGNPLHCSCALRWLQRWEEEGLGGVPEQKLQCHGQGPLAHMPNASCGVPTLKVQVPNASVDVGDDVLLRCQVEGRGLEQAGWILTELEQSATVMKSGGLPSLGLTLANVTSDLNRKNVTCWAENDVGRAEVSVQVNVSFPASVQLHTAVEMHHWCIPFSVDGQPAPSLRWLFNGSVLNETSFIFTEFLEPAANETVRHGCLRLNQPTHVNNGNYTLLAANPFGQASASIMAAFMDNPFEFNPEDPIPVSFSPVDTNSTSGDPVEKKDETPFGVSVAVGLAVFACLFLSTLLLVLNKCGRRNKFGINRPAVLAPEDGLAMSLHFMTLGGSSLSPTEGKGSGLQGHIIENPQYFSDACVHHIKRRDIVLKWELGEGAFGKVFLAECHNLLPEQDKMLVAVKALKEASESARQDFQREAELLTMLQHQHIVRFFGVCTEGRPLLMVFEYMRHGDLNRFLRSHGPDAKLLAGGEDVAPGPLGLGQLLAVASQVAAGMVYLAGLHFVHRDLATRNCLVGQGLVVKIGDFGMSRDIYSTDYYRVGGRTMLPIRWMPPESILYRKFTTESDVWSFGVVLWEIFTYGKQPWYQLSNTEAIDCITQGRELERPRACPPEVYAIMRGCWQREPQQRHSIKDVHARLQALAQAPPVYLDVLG
Sequence of High affinity nerve growth factor receptor (Rattus norvegicus) (P35739 whole entry): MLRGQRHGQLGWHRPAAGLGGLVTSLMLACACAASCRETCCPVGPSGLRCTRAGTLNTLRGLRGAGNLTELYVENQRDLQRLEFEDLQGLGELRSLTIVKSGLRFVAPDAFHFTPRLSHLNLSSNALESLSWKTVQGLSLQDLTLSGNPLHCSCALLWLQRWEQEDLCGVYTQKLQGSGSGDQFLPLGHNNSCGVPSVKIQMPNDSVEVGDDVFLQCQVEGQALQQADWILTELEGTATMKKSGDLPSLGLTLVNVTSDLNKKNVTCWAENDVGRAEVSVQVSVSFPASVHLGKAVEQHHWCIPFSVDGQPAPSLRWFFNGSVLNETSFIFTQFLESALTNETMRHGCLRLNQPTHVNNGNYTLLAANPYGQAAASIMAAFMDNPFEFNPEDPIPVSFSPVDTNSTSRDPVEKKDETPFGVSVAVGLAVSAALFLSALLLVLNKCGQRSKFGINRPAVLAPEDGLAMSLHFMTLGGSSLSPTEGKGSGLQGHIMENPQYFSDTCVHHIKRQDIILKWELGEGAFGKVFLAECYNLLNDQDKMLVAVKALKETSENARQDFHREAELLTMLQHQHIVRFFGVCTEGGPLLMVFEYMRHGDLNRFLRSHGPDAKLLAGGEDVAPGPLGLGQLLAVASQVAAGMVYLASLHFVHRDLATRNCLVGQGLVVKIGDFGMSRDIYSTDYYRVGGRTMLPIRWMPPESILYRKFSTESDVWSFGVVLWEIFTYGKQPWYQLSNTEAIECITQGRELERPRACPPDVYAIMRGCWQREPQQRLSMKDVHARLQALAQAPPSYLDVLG
T2 sequence (Q16620 whole entry): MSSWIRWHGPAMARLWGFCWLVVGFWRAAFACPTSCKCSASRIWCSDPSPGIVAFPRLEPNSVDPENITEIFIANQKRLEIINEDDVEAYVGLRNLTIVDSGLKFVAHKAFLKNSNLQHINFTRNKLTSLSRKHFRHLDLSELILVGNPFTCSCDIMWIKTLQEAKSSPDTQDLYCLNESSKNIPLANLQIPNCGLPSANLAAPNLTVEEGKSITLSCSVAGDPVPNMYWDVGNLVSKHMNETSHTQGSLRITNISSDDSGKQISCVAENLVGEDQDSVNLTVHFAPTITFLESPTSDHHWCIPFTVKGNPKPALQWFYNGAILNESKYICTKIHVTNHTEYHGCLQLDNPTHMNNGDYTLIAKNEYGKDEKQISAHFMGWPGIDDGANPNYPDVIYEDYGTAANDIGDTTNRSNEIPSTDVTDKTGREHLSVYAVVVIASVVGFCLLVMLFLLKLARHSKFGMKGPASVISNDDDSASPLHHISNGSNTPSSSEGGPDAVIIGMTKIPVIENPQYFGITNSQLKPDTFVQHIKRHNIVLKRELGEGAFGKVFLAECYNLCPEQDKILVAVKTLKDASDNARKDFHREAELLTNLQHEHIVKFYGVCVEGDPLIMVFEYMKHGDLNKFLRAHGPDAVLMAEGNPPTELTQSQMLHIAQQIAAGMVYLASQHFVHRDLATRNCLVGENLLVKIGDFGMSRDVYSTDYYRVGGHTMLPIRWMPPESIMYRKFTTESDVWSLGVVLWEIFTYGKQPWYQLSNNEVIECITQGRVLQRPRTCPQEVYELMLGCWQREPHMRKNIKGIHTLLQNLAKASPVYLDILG
Sequence of NT-3 growth factor receptor (Q16288 whole entry, the tested form may be a part): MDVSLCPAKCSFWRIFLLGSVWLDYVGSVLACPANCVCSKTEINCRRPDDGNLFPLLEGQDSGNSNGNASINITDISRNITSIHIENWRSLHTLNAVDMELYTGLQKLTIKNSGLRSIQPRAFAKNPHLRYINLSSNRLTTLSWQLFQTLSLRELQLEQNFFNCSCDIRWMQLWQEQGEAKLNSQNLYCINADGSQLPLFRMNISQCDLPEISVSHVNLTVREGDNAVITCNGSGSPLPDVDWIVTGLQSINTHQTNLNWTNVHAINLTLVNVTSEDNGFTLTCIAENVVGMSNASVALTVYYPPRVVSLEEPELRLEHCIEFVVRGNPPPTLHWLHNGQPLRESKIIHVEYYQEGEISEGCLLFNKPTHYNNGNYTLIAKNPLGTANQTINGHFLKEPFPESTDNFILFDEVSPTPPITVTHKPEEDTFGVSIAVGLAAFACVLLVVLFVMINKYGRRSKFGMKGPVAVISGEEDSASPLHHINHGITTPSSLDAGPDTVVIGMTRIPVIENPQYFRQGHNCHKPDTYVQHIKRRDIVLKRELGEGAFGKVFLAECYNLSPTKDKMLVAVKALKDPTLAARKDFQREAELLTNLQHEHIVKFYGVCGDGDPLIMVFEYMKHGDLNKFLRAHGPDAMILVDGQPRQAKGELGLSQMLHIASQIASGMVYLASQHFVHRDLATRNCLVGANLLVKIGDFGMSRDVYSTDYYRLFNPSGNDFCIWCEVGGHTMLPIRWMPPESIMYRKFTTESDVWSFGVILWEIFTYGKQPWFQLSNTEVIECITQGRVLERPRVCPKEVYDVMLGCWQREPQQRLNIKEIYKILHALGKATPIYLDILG

As for `CNS(=O)(=O)c1ccc2c(c1)/C(=C/c1cn(C)c3ccc(OC)cc13)C(=O)N2`, the inhibition entry in [1] and in data set [2] was “Active” each time. Also, the outcome in the data set on MG87 was inactive.
With `CN(C)S(=O)(=O)c1ccc2c(c1)/C(=C/c1cn(C)c3ccc(O)cc13)C(=O)N2`, the IC50 in data set [3] was 9.72 nM; in [4], 92.8 nM; in [5] it was 13.5 nM; in [6], 9.17 nM.
The matching figures for `COc1ccc2[nH]cc(/C=C3\C(=O)Nc4ccc(S(N)(=O)=O)cc43)c2c1`: 8.82 nM, 103 nM, 8.53 nM and 8.49 nM.
On to `COc1ccc2c(c1)c(/C=C1\C(=O)Nc3ccc(S(=O)(=O)N(C)C)cc31)cn2C`, for which the IC50 in [3] amounted to 11.7 nM; in data set [4], 46 nM; in data set [7], 142 nM; in data set [5] it was 15.2 nM; in data set [6], 10.1 nM. Besides, the Activity result with Cortical neurone is on record as “Non-Toxic”. Further, the concentration in solution in [8] (solubility at 1 h) came to 7.8 µM (≈ 3.21 µg/mL). Also, the inhibition entry in data set [1] and in [2] was “Active” in each case. The outcome in the data set with MG87 was inactive.
In the case of `COc1ccc2c(c1)c(/C=C1\C(=O)Nc3ccc(S(N)(=O)=O)cc31)cn2C`, the inhibition entry in data set [1] and in data set [2] was “Active” each time. Also, in the data set on MG87, the result was inactive.
Turning to `Cn1cc(/C=C2\C(=O)Nc3ccc(S(N)(=O)=O)cc32)c2ccccc21`, the IC50 is 6.86 nM in [3], 36.7 nM in data set [4], 7.62 nM in [5] and 4.17 nM in [6].
